In ChEMBL document CHEMBL4680187, “Optimization of EphA2 antagonists based on a lithocholic acid core led to the identification of UniPR505, a new 3α-carbamoyloxy derivative with antiangiogenetic properties” (Eur J Med Chem, 2020):
Calls of active or inactive are those of the source. The rule behind the calls is not given here.

Experiments:
Chorioallantoic membrane = assay: Antiangiogenic activity in Leghorn chicken fertilized egg chorioallantoic membrane assessed as reduction in unstimulated neovascularization at 10 uM measured after 3 days by CAM assay; assay type: functional, tissue-based; conditions: Gallus gallus, time 3.0 day
Ephrin type-A receptor 7 = Ephrin type-A receptor 7 (Mus musculus, UniProt Q61772); assay: Displacement of biotinylated ephrin-A1-Fc from mouse EphA7 Fc preincubated for 1 hr followed by ephrin-A1-FC addition and measured after 4 hrs by ELISA
Chain of Ephrin type-A receptor 7 (Q61772 whole entry): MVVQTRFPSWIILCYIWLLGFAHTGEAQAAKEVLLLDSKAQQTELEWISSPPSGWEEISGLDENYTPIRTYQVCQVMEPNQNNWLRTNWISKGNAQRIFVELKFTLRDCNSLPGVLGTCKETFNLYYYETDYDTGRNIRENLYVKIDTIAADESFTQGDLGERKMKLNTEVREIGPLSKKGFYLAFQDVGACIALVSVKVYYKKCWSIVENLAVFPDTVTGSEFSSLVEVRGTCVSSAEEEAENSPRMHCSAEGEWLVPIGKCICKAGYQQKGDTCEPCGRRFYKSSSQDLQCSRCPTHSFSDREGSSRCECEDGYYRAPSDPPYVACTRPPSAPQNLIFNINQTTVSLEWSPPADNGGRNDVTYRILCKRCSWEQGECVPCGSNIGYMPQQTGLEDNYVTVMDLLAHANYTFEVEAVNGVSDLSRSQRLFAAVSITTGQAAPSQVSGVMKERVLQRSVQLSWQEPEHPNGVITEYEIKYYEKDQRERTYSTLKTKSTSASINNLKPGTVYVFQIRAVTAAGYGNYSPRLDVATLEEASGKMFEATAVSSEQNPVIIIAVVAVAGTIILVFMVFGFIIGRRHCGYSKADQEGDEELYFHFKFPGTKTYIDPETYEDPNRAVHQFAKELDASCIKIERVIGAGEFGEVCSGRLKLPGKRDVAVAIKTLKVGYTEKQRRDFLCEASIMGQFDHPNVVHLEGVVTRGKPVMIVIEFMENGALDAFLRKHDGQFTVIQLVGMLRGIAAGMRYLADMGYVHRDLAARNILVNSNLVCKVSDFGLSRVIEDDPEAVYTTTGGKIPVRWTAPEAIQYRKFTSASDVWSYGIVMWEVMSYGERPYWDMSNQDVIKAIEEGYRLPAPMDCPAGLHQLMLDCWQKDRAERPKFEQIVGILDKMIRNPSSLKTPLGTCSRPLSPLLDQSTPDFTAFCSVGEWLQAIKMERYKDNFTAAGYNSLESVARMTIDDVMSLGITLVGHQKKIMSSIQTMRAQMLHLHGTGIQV

Ephrin type-B receptor 3 = molecular target: T1, Ephrin type-B receptor 3 (Mus musculus, UniProt P54754); assay: Displacement of biotinylated ephrin-B1-Fc from mouse EphB3 Fc preincubated for 1 hr followed by ephrin-B1-FC addition and measured after 4 hrs by ELISA
T1 sequence (P54754 whole entry): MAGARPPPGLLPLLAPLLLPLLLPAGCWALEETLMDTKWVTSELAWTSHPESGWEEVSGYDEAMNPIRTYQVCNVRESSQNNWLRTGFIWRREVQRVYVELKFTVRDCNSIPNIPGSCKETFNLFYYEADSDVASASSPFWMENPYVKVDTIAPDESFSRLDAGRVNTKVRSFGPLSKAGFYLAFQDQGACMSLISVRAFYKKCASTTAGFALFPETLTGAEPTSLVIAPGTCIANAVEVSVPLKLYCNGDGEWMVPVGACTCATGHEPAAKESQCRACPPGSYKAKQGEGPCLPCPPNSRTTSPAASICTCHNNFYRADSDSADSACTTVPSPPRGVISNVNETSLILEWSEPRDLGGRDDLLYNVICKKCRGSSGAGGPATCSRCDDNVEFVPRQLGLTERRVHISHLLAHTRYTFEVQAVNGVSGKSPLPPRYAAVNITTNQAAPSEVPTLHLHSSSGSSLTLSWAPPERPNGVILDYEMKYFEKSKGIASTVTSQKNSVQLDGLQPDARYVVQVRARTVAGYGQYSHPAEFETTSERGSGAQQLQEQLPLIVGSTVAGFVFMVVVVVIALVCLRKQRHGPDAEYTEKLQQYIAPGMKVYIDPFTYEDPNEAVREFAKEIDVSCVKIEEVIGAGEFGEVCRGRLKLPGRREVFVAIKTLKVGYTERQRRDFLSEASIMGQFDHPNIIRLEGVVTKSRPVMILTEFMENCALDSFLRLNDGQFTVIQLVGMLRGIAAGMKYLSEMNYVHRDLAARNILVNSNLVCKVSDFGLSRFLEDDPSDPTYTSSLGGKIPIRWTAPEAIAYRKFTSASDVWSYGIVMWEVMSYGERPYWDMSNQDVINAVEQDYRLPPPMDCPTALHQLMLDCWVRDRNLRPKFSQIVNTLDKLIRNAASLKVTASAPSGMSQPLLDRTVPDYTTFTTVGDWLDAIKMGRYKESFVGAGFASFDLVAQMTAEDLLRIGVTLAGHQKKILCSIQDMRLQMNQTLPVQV

Ephrin type-A receptor 6 = molecular target: T2, Ephrin type-A receptor 6 (Mus musculus, UniProt Q62413); assay: Displacement of biotinylated ephrin-A1-Fc from mouse EphA6 Fc preincubated for 1 hr followed by ephrin-A1-FC addition and measured after 4 hrs by ELISA
T2 sequence (Q62413 whole entry): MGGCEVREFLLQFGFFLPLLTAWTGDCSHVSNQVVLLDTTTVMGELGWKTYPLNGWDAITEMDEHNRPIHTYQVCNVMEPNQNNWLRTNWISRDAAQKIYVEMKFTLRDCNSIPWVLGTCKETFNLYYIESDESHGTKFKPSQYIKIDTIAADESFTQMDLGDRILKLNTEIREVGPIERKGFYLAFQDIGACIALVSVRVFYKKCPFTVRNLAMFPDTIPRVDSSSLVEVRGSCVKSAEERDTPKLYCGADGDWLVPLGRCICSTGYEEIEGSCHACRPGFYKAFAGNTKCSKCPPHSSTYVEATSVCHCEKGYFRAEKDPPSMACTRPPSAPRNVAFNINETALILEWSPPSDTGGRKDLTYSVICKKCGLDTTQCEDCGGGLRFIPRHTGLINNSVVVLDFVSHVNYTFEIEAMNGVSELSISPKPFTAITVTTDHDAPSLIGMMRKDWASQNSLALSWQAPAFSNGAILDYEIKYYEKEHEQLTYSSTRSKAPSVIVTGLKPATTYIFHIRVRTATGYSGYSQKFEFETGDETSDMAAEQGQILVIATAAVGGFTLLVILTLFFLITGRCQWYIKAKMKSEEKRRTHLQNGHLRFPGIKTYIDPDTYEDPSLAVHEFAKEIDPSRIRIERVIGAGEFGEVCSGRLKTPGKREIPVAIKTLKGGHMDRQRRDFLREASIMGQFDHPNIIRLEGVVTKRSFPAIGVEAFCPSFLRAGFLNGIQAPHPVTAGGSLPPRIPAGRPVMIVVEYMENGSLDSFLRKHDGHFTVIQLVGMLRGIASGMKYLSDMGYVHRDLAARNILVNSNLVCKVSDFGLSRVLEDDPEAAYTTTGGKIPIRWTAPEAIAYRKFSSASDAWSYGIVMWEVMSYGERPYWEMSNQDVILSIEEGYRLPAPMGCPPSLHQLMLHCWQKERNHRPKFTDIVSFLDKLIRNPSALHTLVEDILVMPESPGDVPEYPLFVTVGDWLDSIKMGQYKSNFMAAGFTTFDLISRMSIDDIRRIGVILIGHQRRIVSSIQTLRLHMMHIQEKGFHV

HUVEC = assay: Cytotoxicity against HUVEC cells upto 30 uM after 16 hrs by MTT assay; assay type: cell-based; conditions: human
Ephrin type-A receptor 4 = Ephrin type-A receptor 4 (Mus musculus, UniProt Q03137); assay: Displacement of biotinylated ephrin-A1-Fc from mouse EphA4 Fc preincubated for 1 hr followed by ephrin-A1-FC addition and measured after 4 hrs by ELISA
Chain of Ephrin type-A receptor 4 (Q03137 whole entry): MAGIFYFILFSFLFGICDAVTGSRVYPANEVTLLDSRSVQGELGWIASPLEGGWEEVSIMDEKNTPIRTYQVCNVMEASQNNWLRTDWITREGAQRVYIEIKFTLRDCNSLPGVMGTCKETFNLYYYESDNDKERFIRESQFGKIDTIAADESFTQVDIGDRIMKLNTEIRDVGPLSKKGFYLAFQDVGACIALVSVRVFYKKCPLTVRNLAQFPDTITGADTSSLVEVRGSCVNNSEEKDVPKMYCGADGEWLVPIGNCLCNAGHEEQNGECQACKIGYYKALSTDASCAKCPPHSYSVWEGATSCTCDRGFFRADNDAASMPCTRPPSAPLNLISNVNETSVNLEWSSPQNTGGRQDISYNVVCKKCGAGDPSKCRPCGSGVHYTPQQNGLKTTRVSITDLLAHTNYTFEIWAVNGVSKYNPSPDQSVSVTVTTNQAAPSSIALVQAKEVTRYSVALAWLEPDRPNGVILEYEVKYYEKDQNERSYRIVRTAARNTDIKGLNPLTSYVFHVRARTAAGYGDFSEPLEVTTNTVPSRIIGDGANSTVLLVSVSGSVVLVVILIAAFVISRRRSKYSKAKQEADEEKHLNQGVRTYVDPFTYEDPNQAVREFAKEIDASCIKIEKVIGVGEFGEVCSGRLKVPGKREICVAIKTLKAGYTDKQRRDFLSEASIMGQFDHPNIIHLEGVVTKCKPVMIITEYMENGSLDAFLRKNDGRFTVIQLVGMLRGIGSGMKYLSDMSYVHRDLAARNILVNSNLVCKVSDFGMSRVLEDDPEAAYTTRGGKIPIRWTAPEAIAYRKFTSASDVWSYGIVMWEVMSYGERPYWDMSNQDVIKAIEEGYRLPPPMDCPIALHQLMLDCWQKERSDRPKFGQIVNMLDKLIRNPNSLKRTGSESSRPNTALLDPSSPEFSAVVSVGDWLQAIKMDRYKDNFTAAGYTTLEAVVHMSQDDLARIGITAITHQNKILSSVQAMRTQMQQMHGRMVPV

- IC50 (Ephrin type-A receptor 7): > 30 µM
- IC50 (Ephrin type-B receptor 3): 11 µM
- IC50 (Ephrin type-A receptor 6): 18 µM
- IC50 (Ephrin type-A receptor 4): 6.4 µM
Compound: CCNC(=O)O[C@@H]1CC[C@@]2(C)[C@H](CC[C@@H]3[C@@H]2CC[C@]2(C)[C@@H]([C@H](C)CCC(=O)N[C@H](CC(=O)O)Cc4c[nH]c5ccccc45)CC[C@@H]32)C1
- Activity (Chorioallantoic membrane): inactive
- Activity (HUVEC): Non-Toxic
